The source made the active and inactive calls. No cut-off for these calls is given here.

In the first assay the test system is Haemonchus contortus. Put plainly: Anthelmintic activity against Haemonchus contortus McMaster by larvel development assay. Format: functional.
In the case of `COCCOc1ccc(-c2nc3ccc(OCc4ccccc4)nn3c2Cl)cc1`, the LD99 result is “inactive”. On the same count and under the same terms, for `COCCOc1ccc(-c2cn3nc(OC4CCCC4)ccc3n2)cc1` the value was 5.31 µM. Same read-out and setting: with `CCOCCOc1ccc(-c2cn3nc(OCC4CC4)ccc3n2)cc1` the figure was 0.11 µM; with `CCCOc1ccc2nc(-c3ccc4c(c3)OCCO4)cn2n1`, 2.6 µM.

Molecule `CCCNc1ccc2nc(-c3ccc(OCCOC)cc3)cn2n1` had an LD99 of 2.11 µM.

With `CCCOc1nn2cc(-c3ccc(OCC)cc3)nc2c2ccccc12`, the LD99 was found to be 1.8 µM. `CCCSc1ccc2nc(-c3ccc(OCCOC)c(OC)c3)cn2n1` had an LD99 of 2.17 µM. Consider `CCCOc1ccc2nc(-c3ccc(OC)c(OC)c3)cn2n1`, for which the LD99 was determined as 4.15 µM. Molecule `CCCCOc1ccc2nc(-c3ccc(OCCOC)cc3)cn2n1` registered an LD99 of 0.64 µM.

`CCCOc1ccc2nc(-c3ccc(OCCOC)cc3)c(C)n2n1` came in with an LD99 of 0.32 µM. `COCCOc1ccc(-c2cn3nc(N4CCCC4)ccc3n2)cc1` yielded an LD99 of 9.6 µM. Same read-out and setting: for `CCOCCOc1ccc(-c2cn3nc(SCC(C)C)ccc3n2)cc1` the value was 0.87 µM. For `CCCOc1ccc2nc(-c3ccc(OCCOC)c(OC)c3)c(I)n2n1`, the LD99 is 10.35 µM. Still for that read-out and setting: with `CCCOc1ccc2nc(-c3ccc(OCCOC)cc3)c(-c3ccccc3)n2n1` the figure was 9.29 µM; with `COCCOc1ccc(-c2cn3nc(-c4ccccc4)ccc3n2)cc1`, 8.11 µM; with `CCCSc1ccc2nc(-c3ccc(OCCOC)cc3)cn2n1`, 2.36 µM. On the same count and under the same terms, with `COCCOc1ccc(-c2cn3nc(OC(C)C)ccc3n2)cc1` the figure was 4.96 µM; with `COCCOc1cccc(-c2nc3ccc(SC(C)C)nn3c2C)c1`, 19.58 µM. The same measure, in the same setting: with `c1ccc([C@H]2CN3CCSC3=N2)cc1` [LEVAMISOLE] the figure was 0.66 µM; with `CCCOc1nn2cc(-c3ccc(OCC)cc3)nc2cc1C`, 0.6 µM; with `CCCCSc1ccc2nc(-c3ccc(C(F)(F)F)cc3)cn2n1`, “inactive”. For `COCCOc1ccc(-c2cn3nc(OCC4CC4)ccc3n2)cc1`, the LD99 worked out at 0.11 µM.

In the case of `CCCCSc1ccc2nc(-c3ccc(OCCOCC)cc3)cn2n1`, the LD99 is 0.59 µM. Same read-out and setting: with `COCCOc1ccc(-c2cn3ncccc3n2)cc1` the entry was “inactive”; with IVERMECTIN, 0.006 µM; with `CCCOc1ccc2nc(-c3ccc(OCCOC)cc3)cn2n1`, 0.29 µM. The same measure, in the same setting: for `CCc1ccc(-c2cn3nc(OCC4CC4)ccc3n2)cc1` the value was 0.27 µM. Same read-out and setting: for `CCCOc1ccc2nc(-c3ccc(OCCOC)cc3)c(Cl)n2n1` the value was 0.06 µM; for `COCCOc1ccc(-c2nc3ccc(OCC4CC4)nn3c2Br)cc1`, 0.1 µM; for `CCCCc1ccc2nc(-c3ccc(OCCOC)cc3)cn2n1`, 1.92 µM. Take `CCCCN(C)c1ccc2nc(-c3ccc(OCCOC)cc3)cn2n1`: the LD99 was determined as 2.29 µM.

`COCCOc1ccc(-c2cn3nc(SC(C)C)ccc3n2)cc1` returned an LD99 of 0.59 µM. Same read-out and setting: for `CCCOc1ccc2nc(-c3ccc(OCCOC)c(OC)c3)cn2n1` the value was 2.27 µM; for `CCCOc1nn2cc(-c3ccc(OCCOC)c(OC)c3)nc2cc1C`, 0.32 µM; for `COCCOc1ccc(-c2cn3nc(-c4ccsc4)ccc3n2)cc1`, 1.96 µM.

Molecule `CCCSc1ccc2nc(-c3ccc(OCCOC)c(OC)c3)c(Br)n2n1` showed an LD99 of 1.66 µM. `CCOc1ccc(-c2cn3nc(OCC4CC4)ccc3n2)cc1`: the LD99 is 0.09 µM. On the same count and under the same terms, with `CCCOc1ccc2nc(-c3ccc(OCCOCC)cc3)cn2n1` the figure was 0.32 µM. The same measure, in the same setting: for `COCCOc1cccc(-c2nc3ccc(OC(C)C)nn3c2C)c1` the value was 14.65 µM. The same measure, in the same setting: for `CCCSc1ccc2nc(-c3ccc(OCC)cc3)cn2n1` the value was 1.21 µM.

Turning to `FC(F)(F)c1ccc(-c2cn3nc(OCC4CC4)ccc3n2)cc1`, the LD99 result was “inactive”. On the same count and under the same terms, with `CCCOc1ccc2nc(-c3ccc(Cl)cc3)cn2n1` the figure was 13.03 µM. The same measure, in the same setting: with `CCCOc1ccc2nc(-c3ccc(OCCOC)c(OC)c3)c(C#N)n2n1` the entry was “inactive”; with `CCCSc1ccc2nc(-c3cccc(OC)c3)cn2n1`, 2.1 µM. The same measure, in the same setting: for `CCCOc1ccc2nc(-c3ccc(OCCOC)cc3)c(I)n2n1` the value was 0.03 µM; for `CCCOc1ccc2nc(-c3ccc(OCCOC)cc3)c(C#N)n2n1`, 0.11 µM; for `CCCOc1ccc2nc(-c3cccc(OCCOC)c3)c(C)n2n1`, 5.49 µM.

`CCCCSc1ccc2nc(-c3ccc(OCCOC)cc3)cn2n1` came in with an LD99 of 0.26 µM.

Take `CCCOc1ccc2nc(-c3ccccc3)cn2n1`: the LD99 entry was “inactive”. Still for that read-out and setting: for `Clc1ccc(-c2cn3nc(OCC4CC4)ccc3n2)c(Cl)c1` the value was “inactive”; for `CCCOc1nn2cc(-c3ccc(OCCOC)cc3)nc2c2ccccc12`, 0.91 µM; for `COCCOc1ccc(-c2cn3nc(OCCOC)ccc3n2)cc1`, 17.47 µM. Still for that read-out and setting: with `CCCSc1ccc2nc(-c3ccc(Cl)cc3Cl)cn2n1` the entry was “inactive”. Molecule `CCCOc1ccc2nc(-c3ccc4c(c3)OCO4)cn2n1` returned an LD99 of 0.77 µM.

For the molecule `CCOc1ccc2nc(-c3ccc(OCCOC)cc3)cn2n1`, the LD99 was found to be 1.3 µM. The same measure, in the same setting: with `CCCOc1ccc2nc(-c3ccc(OCCOC)cc3)c(Br)n2n1` the figure was 0.03 µM; with `CCCOc1ccc2nc(-c3cccc(OC)c3)cn2n1`, 0.81 µM.

The subject of a further assay is Haemonchus contortus. Put plainly: Anthelmintic activity against benzimidazole-resistant Haemonchus contortus VRSG. It counts as functional.
Molecule `CCCOc1ccc2nc(-c3ccc4c(c3)OCO4)cn2n1` displayed an LD99 of 0.94 µM.

The next assay has as its system Haemonchus contortus. Put plainly: Anthelmintic activity against benzimidazole and Levamisole-resistant Haemonchus contortus Lawes. It counts as functional.
Molecule `CCCOc1ccc2nc(-c3ccc4c(c3)OCO4)cn2n1` came in with an LD99 of 0.67 µM.

The test system of another assay is Haemonchus contortus. Briefly: Anthelmintic activity against Ivermectin-resistant Haemonchus contortus CAVR. It counts as functional.
Molecule `CCCOc1ccc2nc(-c3ccc4c(c3)OCO4)cn2n1` gave an LD99 of 1.85 µM.

The subject of a further assay is Trichostrongylus colubriformis. Put plainly: Anthelmintic activity against Trichostrongylus colubriformis McMaster. It counts as functional.
For the molecule `CCCOc1ccc2nc(-c3ccc4c(c3)OCO4)cn2n1`, the LD99 is 0.67 µM.

The subject of another assay is Teladorsagia circumcincta. Put plainly: Anthelmintic activity against Ostertagia circumcincta. Format: functional.
`CCCOc1ccc2nc(-c3ccc4c(c3)OCO4)cn2n1` registered an LD99 of 0.33 µM.

These data come from ChEMBL document CHEMBL1795204 (2011).
